Source: BigSolDB 2.1

O=P(O)(CO)c1ccccc1
Conditions | solubility (mole fraction)
in 2-butanone, 288.15 K | 0.0013
in 2-butanone, 293.16 K | 0.0015
in 2-butanone, 298.17 K | 0.0017
in 2-butanone, 303.18 K | 0.0019
in 2-butanone, 308.14 K | 0.0022
in 2-butanone, 313.16 K | 0.0024
in 2-butanone, 318.17 K | 0.0027
in 2-butanone, 323.16 K | 0.0029
in 2-butanone, 328.17 K | 0.0033
in 2-butanone, 333.16 K | 0.0037
in 2-ethoxyethanol, 293.16 K | 0.0461
in 2-ethoxyethanol, 298.17 K | 0.0512
in 2-ethoxyethanol, 303.18 K | 0.0571
in 2-ethoxyethanol, 308.14 K | 0.0638
in 2-ethoxyethanol, 313.16 K | 0.0709
in 2-ethoxyethanol, 318.17 K | 0.0777
in 2-ethoxyethanol, 323.16 K | 0.0849
in 2-ethoxyethanol, 328.16 K | 0.0937
in 2-ethoxyethanol, 333.15 K | 0.102
in acetone, 288.15 K | 0.0013
in acetone, 293.16 K | 0.0015
in acetone, 298.17 K | 0.0017
in acetone, 303.18 K | 0.002
in acetone, 308.14 K | 0.0023
in acetone, 313.16 K | 0.0026
in acetone, 318.17 K | 0.003
in acetone, 323.16 K | 0.0035
in benzene, 293.16 K | 0.0009
in benzene, 298.17 K | 0.0011
in benzene, 303.18 K | 0.0013
in benzene, 308.14 K | 0.0016
in benzene, 313.16 K | 0.0019
in benzene, 318.17 K | 0.0022
in benzene, 323.16 K | 0.0027
in benzene, 328.16 K | 0.0032
in benzene, 333.15 K | 0.0037
in cyclohexane, 288.15 K | 0.001
in cyclohexane, 293.16 K | 0.0011
in cyclohexane, 298.17 K | 0.0012
in cyclohexane, 303.18 K | 0.0013
in cyclohexane, 308.14 K | 0.0014
in cyclohexane, 313.16 K | 0.0015
in cyclohexane, 318.17 K | 0.0016
in cyclohexane, 323.16 K | 0.0017
in cyclohexane, 328.17 K | 0.0018
in cyclohexane, 333.16 K | 0.0019
in dichloromethane, 293.16 K | 0.00061
in dichloromethane, 296.17 K | 0.00079
in dichloromethane, 301.13 K | 0.00119
in dichloromethane, 303.14 K | 0.00143
in dichloromethane, 305.15 K | 0.00169
in diethyl ether, 293.16 K | 0.00113
in diethyl ether, 296.17 K | 0.00138
in diethyl ether, 301.13 K | 0.00188
in diethyl ether, 303.14 K | 0.00212
in diethyl ether, 305.15 K | 0.00238
in toluene, 288.15 K | 0.001
in toluene, 293.16 K | 0.0011
in toluene, 298.17 K | 0.0013
in toluene, 303.18 K | 0.0015
in toluene, 308.14 K | 0.0018
in toluene, 313.16 K | 0.002
in toluene, 318.17 K | 0.0023
in toluene, 323.16 K | 0.0026
in toluene, 328.17 K | 0.0029
in toluene, 333.16 K | 0.0033
in water, 307.45 K | 0.0099
in water, 317.46 K | 0.0206
in water, 327.57 K | 0.0424
in water, 338.15 K | 0.0966
in water, 342.45 K | 0.117
in water, 346.58 K | 0.166
in water, 352.8 K | 0.247
in water, 357.11 K | 0.312
